For data set [1], the target named is Carbonic anhydrase 3 (Homo sapiens) (UniProt P07451). Kind of data set: Activation of human recombinant CA3 at 10 uM by stopped-flow CO2 hydration method.
In data set [2] the target is Carbonic anhydrase 4 (Homo sapiens) (UniProt P22748). The data set can be described thus: Activation of human recombinant truncated CA4 at 10 uM by stopped-flow CO2 hydration method.
The subject of data set [3] is N[C@@H](Cc1c[nH]cn1)C(=O)O. The data set can be described thus: (§1) Activity of human recombinant CA1 at 10 uM by stopped-flow CO2 hydration method.
For data set [4], the system named is N[C@H](Cc1c[nH]cn1)C(=O)O. Described as §1.
Data set [5] concerns the target Carbonic anhydrase 1 (Homo sapiens) (UniProt P00915). Kind of data set: Activation of human recombinant CA1 at 10 uM by stopped-flow CO2 hydration method.
In data set [6] the target is Carbonic anhydrase 2 (Homo sapiens) (UniProt P00918). Kind of data set: Activation of human recombinant CA2 at 10 uM by stopped-flow CO2 hydration method.
The subject of data set [7] is N[C@@H](Cc1c[nH]cn1)C(=O)O. Kind of data set: (§2) Activity of human recombinant CA2 at 10 uM stopped-flow CO2 hydration method.
In data set [8] the test system is N[C@H](Cc1c[nH]cn1)C(=O)O. The data set is described as §2.

18 molecules from ChEMBL document CHEMBL1155874, “Carbonic anhydrase activators: Activation of the human cytosolic isozyme III and membrane-associated isoform IV with amino acids and amines” (Bioorg Med Chem Lett, 2008) can be followed below.

Chain of Carbonic anhydrase 3 (Homo sapiens) (P07451 whole entry, the tested form may be a part): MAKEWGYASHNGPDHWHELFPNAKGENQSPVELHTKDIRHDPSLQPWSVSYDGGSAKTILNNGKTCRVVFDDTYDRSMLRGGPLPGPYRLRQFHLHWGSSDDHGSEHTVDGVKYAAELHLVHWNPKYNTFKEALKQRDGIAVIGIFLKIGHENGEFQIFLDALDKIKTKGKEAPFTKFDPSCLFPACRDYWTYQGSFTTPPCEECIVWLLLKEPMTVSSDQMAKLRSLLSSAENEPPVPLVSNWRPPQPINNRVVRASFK
Chain of Carbonic anhydrase 4 (Homo sapiens) (P22748 whole entry, the tested form may be a part): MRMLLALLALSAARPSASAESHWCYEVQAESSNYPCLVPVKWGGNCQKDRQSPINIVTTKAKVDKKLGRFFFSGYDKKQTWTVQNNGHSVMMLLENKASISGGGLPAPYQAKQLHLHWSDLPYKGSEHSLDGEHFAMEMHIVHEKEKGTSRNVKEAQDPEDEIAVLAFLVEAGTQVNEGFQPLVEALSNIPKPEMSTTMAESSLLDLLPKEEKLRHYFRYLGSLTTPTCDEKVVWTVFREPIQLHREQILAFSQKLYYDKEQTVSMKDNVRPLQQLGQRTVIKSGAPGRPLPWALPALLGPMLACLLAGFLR
Chain of Carbonic anhydrase 1 (Homo sapiens), P00915 (P00915 whole entry): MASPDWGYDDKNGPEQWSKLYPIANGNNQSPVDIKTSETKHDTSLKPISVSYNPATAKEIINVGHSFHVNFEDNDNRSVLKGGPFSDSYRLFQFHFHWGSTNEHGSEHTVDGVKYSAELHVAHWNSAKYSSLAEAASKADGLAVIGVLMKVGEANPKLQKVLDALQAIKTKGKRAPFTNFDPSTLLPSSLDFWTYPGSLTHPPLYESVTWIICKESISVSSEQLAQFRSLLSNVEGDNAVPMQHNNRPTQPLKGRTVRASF
Chain of Carbonic anhydrase 1 (Homo sapiens) (P00915 2-261 limits assumed): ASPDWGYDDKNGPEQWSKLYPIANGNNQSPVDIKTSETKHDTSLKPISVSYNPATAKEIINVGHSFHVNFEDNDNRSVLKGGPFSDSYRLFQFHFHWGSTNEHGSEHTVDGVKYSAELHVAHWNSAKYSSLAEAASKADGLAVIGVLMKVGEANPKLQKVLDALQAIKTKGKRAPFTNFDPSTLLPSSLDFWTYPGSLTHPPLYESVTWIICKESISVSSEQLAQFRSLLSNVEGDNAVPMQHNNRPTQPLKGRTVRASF

Turning to `NCCN1CCOCC1`, the Ka in data set [1] stood at 0.091 µM; in data set [2], 1.3 µM.

On to “Carbonic anhydrase 1 (Homo sapiens), P00915”, for which the kcat worked out at 13.4 ×10⁵ /s in data set [3] and 9.1 ×10⁵ /s in data set [4].

On to `NCCc1ccc(O)c(O)c1`, for which the Ka turned out to be 33.2 µM in data set [1] and 30.9 µM in data set [2].

As to `N[C@@H](Cc1ccc(O)c(O)c1)C(=O)O`, the Ka was 13.5 µM in data set [1] and 15.3 µM in data set [2].

As to `NCCc1c[nH]cn1`, the Ka was 2.1 µM in data set [5], 36.9 µM in data set [1] and 25.3 µM in data set [2].

For the molecule `NCCc1c[nH]c2ccc(O)cc12`, the Ka in data set [1] was found to be 0.78 µM; in data set [2], 3.14 µM.

For `N[C@H](Cc1c[nH]cn1)C(=O)O`, the values for the Ka in data set [1] and in data set [2] were 1.12 µM and 12.3 µM, respectively.

As to `CNCC(O)c1ccc(O)c(O)c1` (single isomer, unassigned), the Ka in data set [5] was determined as 0.09 µM; in data set [6], 96 µM; in data set [1] it was 36.4 µM; in data set [2], 45 µM.

Consider “Carbonic anhydrase 2 (Homo sapiens) (from UniProt P00918)”, for which the kcat in data set [7] turned out to be 4.3 ×10⁶ /s; in data set [8], 2.7 ×10⁶ /s.

As to `Nc1ccc(C[C@H](N)C(=O)O)cc1`, the Ka in data set [1] stood at 43.2 µM; in data set [2], 0.079 µM.

`NCc1ccccn1`: the Ka turned out to be 1.03 µM in data set [1] and 5.19 µM in data set [2].

On to `N[C@@H](Cc1ccc(O)cc1)C(=O)O`, for which the Ka was 34.1 µM in data set [1] and 25.1 µM in data set [2].

For the molecule `NCCN1CCNCC1`, the Ka amounted to 0.32 µM in data set [1] and 24.9 µM in data set [2].

Regarding `N[C@H](Cc1c[nH]c2ccccc12)C(=O)O`, the Ka in data set [1] is 19 µM; in data set [2], 39.6 µM.

Consider `N[C@@H](Cc1c[nH]c2ccccc12)C(=O)O`, for which the Ka is 20.5 µM in data set [1] and 37.1 µM in data set [2].

`N[C@@H](Cc1c[nH]cn1)C(=O)O`: the Ka amounted to 35.9 µM in data set [1] and 7.3 µM in data set [2].

`NCCc1ccccn1`: the Ka in data set [1] was 1.1 µM; in data set [2], 7.13 µM.

As to `N[C@H](Cc1ccc(O)c(O)c1)C(=O)O`, the Ka in data set [1] came to 28.7 µM; in data set [2], 34.7 µM.
